This note sets out measurements from paper PMC6069109, “An Aspartate-Specific Solute-Binding Protein Regulates Protein Kinase G Activity To Control Glutamate Metabolism in Mycobacteria” (mBio, 2018).

Usually Kd stands for the concentration at which binding is half-saturated.

Where two headings read alike, the source gives them in different places.

Common to all, as to type: binding
The target of experiment [1] is T1, GlnH (Mycobacterium tuberculosis, UniProt P96257). As to the kind of experiment: crystal structure, thermal melt shift.
T1 sequence (P96257 27-328 limits assumed): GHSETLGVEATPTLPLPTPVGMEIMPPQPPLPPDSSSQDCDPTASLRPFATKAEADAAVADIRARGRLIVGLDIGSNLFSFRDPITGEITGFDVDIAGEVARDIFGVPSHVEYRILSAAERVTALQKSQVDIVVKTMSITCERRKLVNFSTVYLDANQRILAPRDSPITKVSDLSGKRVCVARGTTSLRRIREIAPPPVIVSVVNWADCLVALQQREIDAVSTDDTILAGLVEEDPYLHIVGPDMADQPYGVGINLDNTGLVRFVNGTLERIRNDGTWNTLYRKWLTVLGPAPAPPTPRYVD
The target in experiment [2] is T2, C. glutamicum GlnH (GlnHcg) (Corynebacterium glutamicum, UniProt Q8NM30).
T2 construct: gene Cgl2750; soluble domain, N-terminal His6 tag
T2 sequence (Q8NM30 entry or part of it): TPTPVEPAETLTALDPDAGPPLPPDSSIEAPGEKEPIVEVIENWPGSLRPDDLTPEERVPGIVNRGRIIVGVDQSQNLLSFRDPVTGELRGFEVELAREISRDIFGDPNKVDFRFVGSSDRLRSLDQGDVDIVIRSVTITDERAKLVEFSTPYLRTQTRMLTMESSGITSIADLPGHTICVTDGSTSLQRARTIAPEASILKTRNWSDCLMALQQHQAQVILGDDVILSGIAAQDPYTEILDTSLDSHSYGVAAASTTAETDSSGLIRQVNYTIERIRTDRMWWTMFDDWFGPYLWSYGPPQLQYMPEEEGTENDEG
As to the kind of experiment: intrinsic tryptophan fluorescence, thermal melt shift.

In experiment [3] the target is T1, GlnH. As to the kind of experiment: crystal structure, ITC, thermal melt shift.

As to `NC(=O)C[C@H](N)C(=O)O` [asparagine], on GlnH [1], the “crystal structure, thermal melt shift” value is 6H1U (GlnH with Asp), 6H20 (GlnH with Asn), and 6H2T (GlnH with Glu).
`N[C@@H](CC(=O)O)C(=O)O` [aspartate]: the Kd came out at 550 ± 90 µM in experiment [2] (read-out: Kd (μM)^a) and 4.8 ± 0.6 µM at GlnH [3] (read-out: Kd (μM)^a).
As to `N[C@@H](CCC(=O)O)C(=O)O` [glutamate], the Kd in experiment [2] is 2060 µM; on GlnH [3], 15.2 ± 5.7 µM.
